Results: BindingDB's records for doi:10.7270/Q2BV7F7H (Burnham Center For Chemical Genomics, 2012)
Values joined by “and” are separate entries in the source; they are usually repeats but may differ in a detail not shown here. Identical values can stand only once.

Target: Probable nicotinate-nucleotide adenylyltransferase (Staphylococcus aureus (strain N315), UniProt P65502)

Compound	IC50
N#CC1C(=S)N=C(N)C(c2nc(-c3ccccc3)cs2)C12CCCCC2 (centres undefined) [2-amino-4-mercapto-1-(4-phenyl-2-thiazolyl)-3-azaspiro[5.5]undeca-2,4-diene-5-carbonitrile]	23.2 µM
Cc1ccccc1COc1ccc(C(=O)C2C(=O)C(=O)N(CCCn3ccnc3)C2c2ccco2)cc1 (centres undefined)	80 µM
O=C(O)Cc1sc(N=NCc2ccccc2)nc1-c1ccccc1	27.7 µM
O=C1C(=O)N(c2nc3ccc(Cl)cc3s2)C(c2ccco2)C1C(=O)c1ccco1 (centres undefined)	56.8 µM
CCOc1ccc(CN=Nc2ccc(S(=O)(=O)Nc3ccccc3C(=O)O)cc2[N+](=O)[O-])cc1	15.6 µM
C1=NC2CCCC2C(N2CCCC2)=C1 (centres undefined)	50 µM
Cc1ccc(-n2[nH]c(C)c(C(c3cccc(O)c3)c3c(C)[nH]n(-c4ccc(C)c(C)c4)c3=O)c2=O)cc1C [2-(3,4-dimethylphenyl)-4-[[1-(3,4-dimethylphenyl)-5-hydroxy-3-methyl-1H-pyrazol-4-yl](3-hydroxyphenyl)methyl]-5-methyl-2,4-dihydro-3H-pyrazol-3-one]	15.1 µM
Cc1cccc(C)c1Nc1nnc(SCC(=O)C(C#N)c2nc3ccccc3[nH]2)s1 (centres undefined) [MLS000392242]	25.2 µM
Cc1ccc(Nc2nnc(SCC(=O)C(C#N)c3nc4ccccc4[nH]3)s2)c(C)c1 (centres undefined) [2-(1,3-dihydrobenzimidazol-2-ylidene)-4-[[5-(2,4-dimethylanilino)-1,3,4-thiadiazol-2-yl]thio]-3-oxobutanenitrile]	26.7 µM and 21.4 µM
N#CC1C(=S)N=C(N)C(c2nc(-c3ccccc3)cs2)C12CCCC2 (centres undefined) [7-amino-9-mercapto-6-(4-phenyl-2-thiazolyl)-8-azaspiro[4.5]deca-7,9-diene-10-carbonitrile]	19.1 µM
Cc1cc(N2C(=O)C(=O)C(C(=O)c3ccc(C)o3)C2c2ccc(OCc3ccccc3)cc2)no1 (centres undefined) [3-(5-methylfuran-2-yl)carbonyl-1-(5-methyl-1,2-oxazol-3-yl)-4-oxidanyl-2-(4-phenylmethoxyphenyl)-2H-pyrrol-5-one]	28.9 µM

The remaining lines, values ahead:

IC50	Compound
77.7 µM	Cc1ccc(-n2c(O)cc(N(CCc3ccccc3)C(=S)Nc3ccc(N(C)C)cc3)c2O)cc1 [SMR000159829]
14.8 µM	CC(=NNC(=O)c1cccc(N=NC(C)c2ccco2)c1)c1ccco1 (centres undefined) [N-[1-(2-furanyl)ethylideneamino]-3-[2-[1-(2-furanyl)ethylidene]hydrazinyl]benzamide]
29.7 µM	CCc1nnc(NS(=O)(=O)c2ccc(N=CCC(=O)c3ccc4ccccc4c3)cc2)s1 [N-(5-Ethyl-[1,3,4]thiadiazol-2-yl)-4-(3-naphthalen-2-yl-3-oxo-propenylamino)-benzenesulfonamide]
34.5 µM	C#CCN(C[C@@H]1c2c(c(O)n(-c3ccccc3)c2O)C[C@@H](OC(=O)Nc2cccs2)[C@H]1OC(=O)Nc1cccs1)S(=O)(=O)c1ccc(C)cc1 [[(3aR,5R,6S,7S,7aS)-7-[[(4-methylphenyl)sulfonyl-prop-2-ynyl-amino]methyl]-1,3-bis(oxidanylidene)-2-phenyl-6-(thiophen-2-ylcarbamoyloxy)-3a,4,5,6,7,7a-hexahydroisoindol-5-yl] N-thiophen-2-ylcarbamate]
25.5 µM	COc1cccc(OCc2cc(CN=Nc3ccc(C(=O)O)cc3)ccc2OC)c1 [SMR000415960]
45.9 µM	CCOC(=O)c1ccccc1-n1c(O)c2c(c1O)C(C=Cc1ccccc1)c1sc(=O)[nH]c1S2 (centres undefined) [ethyl 2-[2,5,7-trioxo-8-[(E)-2-phenylethenyl]-3,4a,7a,8-tetrahydropyrrolo[2,3]thiopyrano[4,5-b][1,3]thiazol-6-yl]benzoate]
12 µM	Nc1ccccc1C(=O)NNC(=O)C(=O)CC(=O)c1ccccc1 [SMR000427706]
21.1 µM	Cc1[nH]n(-c2ccc(Cl)cc2)c(=O)c1C(c1ccccc1O)c1c(C)[nH]n(-c2ccc(Cl)cc2)c1=O [SMR000171531]
